In paper PMC9897788, “Design, synthesis and cytotoxic evaluation of novel bis-thiazole derivatives as preferential Pim1 kinase inhibitors with in vivo and in silico study” (Journal of Enzyme Inhibition and Medicinal Chemistry, 2023):
Entries after “also recorded” stand apart in the source; their conditions may differ.

Assays:
Pim1 kinase = molecular target: T1, Pim1 kinase (Homo sapiens, UniProt P11309); test: In vitro Pim1 kinase inhibition assay (ADP-Glo); assay type: biochemical; conditions: n = 3
T1 construct: purchased Promega Corporation, Madison, WI
T1 sequence (P11309 whole entry): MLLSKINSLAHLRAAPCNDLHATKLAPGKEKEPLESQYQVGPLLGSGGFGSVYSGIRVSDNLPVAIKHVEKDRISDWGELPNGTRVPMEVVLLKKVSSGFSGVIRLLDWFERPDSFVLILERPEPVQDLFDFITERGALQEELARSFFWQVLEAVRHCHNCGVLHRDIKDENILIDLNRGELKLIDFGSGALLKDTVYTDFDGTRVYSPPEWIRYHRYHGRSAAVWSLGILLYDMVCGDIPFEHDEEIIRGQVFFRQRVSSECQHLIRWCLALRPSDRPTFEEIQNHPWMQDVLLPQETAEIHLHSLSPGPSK
Experimental: ADP-Glo^TM kinase assay kit was used to evaluate Pim1 kinase inhibition purchased from Promega Corporation, Madison, WI. At each of the kit low-volume well, the tested compounds were dissolved in DMSO at each of the tested concentration range and 1 µL was withdrawn and mixed with 2 µL Pim1 kinase and 2 µL of substrate/ATP mix then incubated at room temperature for 60 min. 5 µL of ADP-Glo reagent was added and incubated for another 40 min at room temperature. Finally 10 µL of kinase detection reagents was added and incubated for 30 min and the luminescence was recorded. Pim1 kinase buffer was prepared by mixing 40 mM Tris at pH 7.5, 20 mM MgCl2, 0.1 mg/mL BSA and 50 µM DTT.

Pim2 kinase = Pim2 kinase (Homo sapiens, UniProt Q9P1W9); test: In vitro Pim2 kinase inhibition assay (ADP-Glo); assay type: biochemical; conditions: n = 3
Sequence of Pim2 kinase (Q9P1W9 whole entry): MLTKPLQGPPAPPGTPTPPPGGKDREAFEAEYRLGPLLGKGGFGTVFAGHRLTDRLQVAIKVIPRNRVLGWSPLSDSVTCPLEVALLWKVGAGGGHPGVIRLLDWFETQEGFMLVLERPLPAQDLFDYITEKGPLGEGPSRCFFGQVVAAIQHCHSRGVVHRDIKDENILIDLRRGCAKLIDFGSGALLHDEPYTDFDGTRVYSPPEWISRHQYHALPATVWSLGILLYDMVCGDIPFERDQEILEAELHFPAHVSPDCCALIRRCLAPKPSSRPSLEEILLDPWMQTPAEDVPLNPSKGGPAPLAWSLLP

[1] = tested on: breast cancer T47D cell line; test: Breast T47D cancer cell cycle flowcytometry; assay type: cell-based
Experimental: After treatment with test compounds for 48 h and paclitaxel (1 µM) for 48 h as positive control, cells (10^5 cells) are collected by trypsinization and washed twice with ice-cold PBS (pH 7.4). Cells are re-suspended in two millilitres of 60% ice-cold ethanol and incubated at 4 °C for 1 h for fixation. Fixed cells are washed twice again with PBS (pH 7.4) and re-suspended in 1 ml of PBS containing 50 µg/mL RNAase A and 10 µg/mL propidium iodide (PI). After 20 min of incubation in dark at 37 °C, cells are analysed for DNA contents using flow cytometry analysis using FL2 (λex/em 535/617 nm) signal detector (ACEA Novocyte™ flowcytometer, ACEA Biosciences Inc., San Diego, CA). For each sample, 12,000 events are acquired. Cell cycle distribution is calculated using ACEA NovoExpress™ software (ACEA Biosciences Inc., San Diego, CA)[36].

[2] = Calculation of the lethal dose 50 (LD50), fixed-dose approach; conditions: male, Swiss albino, mouse, in vivo, ip, mice, single dose
Experimental: The LD50 of compounds 3b and 8b were determined using a fixed-dose approach; 12 male Swiss albino mice were divided into four groups (three mice per group) to calculate the LD50. […]. By giving these concentrations once to the animals and monitoring the signs of poisoning and deaths within 24 h, the lethal dose was identified. The animals were monitored continuously for the first two hours and then every four hours after that. After 24 h, all of animal deaths and survival appeared. […]. […] The dose used in the experiment was 1/10 from the LD50.

Ehrlich solid carcinoma = test: In vivo cytotoxicity study, Ehrlich solid carcinoma model; design: species or system male Swiss albino mice; conditions: i.p. once weekly for 3 weeks; for Histopathological examination of Ehrlich solid tumour (H&E): mice; for TNF-α level (ELISA) / malondialdehyde (MDA) level (ELISA): serum, Ehrlich solid tumour mice
Experimental: The National Cancer Institute (Cairo, Egypt) provided the 48 male Swiss albino mice utilised in this study, which ranged in weight from 25 to 30 g. Prior to the experiment, mice were given a week to settle into their new environment. A constant 23 °C temperature, 60% humidity, and a 12/12 light/dark cycle were maintained in stainless steel cages. Each cage housed five mice with a plenty of nourishing food and refreshing water were served. This in vivo study was approved from the ethical committee of the Azhar University, Faculty of Medicine, Egypt.
A female mouse with an 8-day-old ascetic tumour was obtained from the National Cancer Institute on the day of induction, and Ehrlich ascites carcinoma (EAC) cells were isolated from the ascetic fluid of the animal (day 0). Then, regular saline was used to dilute the ascetic fluid (1:10). Each mouse received a subcutaneous injection of 0.2 ml of ascetic fluid containing 2.5 × 10^6 EAC cells in the right thigh of the hind limb to induce Ehrlich solid-phase cancer.
On day 11 following ESC inoculation, tumour formation was observed as a solid mass expanding in the right thigh of each animal. The mice were then randomly divided into four groups (n = 6) • Group (1) acted as the […] control group and mice received an i.p. DMSO (2 mg/kg/once weekly) for 3 weeks. • Group (2) (Doxorubicin Group) mice received an i.p. dose of doxorubicin (2 mg/kg/once weekly) for 3 weeks. • Group (3) mice were given an i.p. dose of 8b compound (1 mg/kg/once weekly) for 3 weeks, • Group (4) mice were given an i.p. dose of 3b compound (1.4 mg/kg/once weekly) for 3 weeks.
Two days after the last dose of therapy, blood was drawn from the mice’s orbital canthus, and serum was separated and stored at −80 °C for upcoming biochemical investigations. Following the cervical dislocation method of euthanasia, tumour samples from each mouse were collected and preserved in neutral buffered formalin at a 10% concentration for immunohistochemistry and histopathology studies. Histological preparations were performed according to the reported method. Slices of Ehrlich tumour were cut to a thickness of 3–4 mm before being fixed in 10% neutral buffered formalin (10% NBF), dehydrated through a series of ethanol solutions, cleaned in xylene, and finally embedded in paraffin. To examine the overall tissue architecture, sections ([…]) thick were cut from paraffin blocks using a microtome and stained with haematoxylin and eosin. We used a Leica microscope (CH9435 Hee56rbrugg) to look at H&E-stained tissue sections (Leica Microsystems, Switzerland).
The avidin–biotin–peroxidase complex (ABC) method was used to do immunohistochemistry on paraffin sections that were put on positively charged slides. Rabbit Anti-VEGF Receptor 2 Polyclonal Antibody (Elabscience Cat# E-AB-63481, Dil.: 1:100) and Rabbit Monoclonal anti-caspase-3 antibody, active (cleaved) form (Sigma Aldrich Catalog # AB3623)[41], were utilised during this IHC assessment. Each group’s sections were treated with the previously specified antibodies, after which the ABC technique reagents (Vectastain ABC-HRP kit, Vector labs) were applied. To locate the antigen–antibody combination, marker expression was stained with diaminobenzidine (DAB, manufactured by Sigma) and labelled with peroxidase. In order to conduct negative controls, non-immune serum was substituted for the primary or secondary antibodies. IHC-stained sections were assessed using a Leica (CH9435 Hee56sbrugg) microscope (Leica Microsystems, Switzerland).
Using one-way analysis of variance (ANOVA) followed by Tukey’s post-hoc test, the difference between experimental groups was analysed. All data are presented as mean ± standard deviation (SD). All comparisons were judged statistically significant when the p values ≤ 0.05. ImageJ (NIH Image J system, Bethesda, MD) was used for the analysis of immunohistochemistry photos.

[3] = Ehrlich solid tumour tissue, 8b 1 mg/kg, 3b 1.4 mg/kg, doxorubicin 2 mg/kg
[4] = 8b 1 mg/kg, 3b 1.4 mg/kg, doxorubicin 2 mg/kg

Compound	IC50 (Pim1 kinase) [nM]	IC50 (Pim2 kinase) [µM]	Percentage of breast T47D cells, G0/G1 Phase ([1]; 48 h incubation) [%]	Percentage of breast T47D cells, Pre G1 Phase ([1]; 48 h incubation) [%]	Percentage of breast T47D cells, S Phase ([1]; 48 h incubation) [%]	G2 phase cells lower than the control by ([1]; relative to untreated control) [%]	pre-G1 phase cells higher than the untreated control by ([1]; relative to untreated control) [%]	LD50 at 24 h [2] [mg/kg]	VEGF expression by immunohistochemistry (Ehrlich solid carcinoma; [3])	Histopathological examination of Ehrlich solid tumour (H&E) (Ehrlich solid carcinoma; [4])	TNF-α level (ELISA) (Ehrlich solid carcinoma)	malondialdehyde (MDA) level (ELISA) (Ehrlich solid carcinoma)	Percentage of breast T47D cells, G2 Phase ([1]; 48 h incubation) [%]	S phase cells higher than the control by ([1]; relative to untreated control) [%]	caspase-3 expression by immunohistochemistry (Ehrlich solid carcinoma; [3])
CC(=O)c1sc(Nc2cccc(Nc3nc(C)c(C(C)=O)s3)c2)nc1C [3b, 1,1’-(2,2’-(1,3-Phenylenebis(azanediyl))bis(4-methylthiazole-5,2-diyl))diethanone]	320	6.05	66.5	2.6	18.7	58	78	14	moderate to low expression of VEGF; also recorded: moderate VEGF positivity; also recorded: down-regulation of VEGF	substantial number of aggregated neoplastic cells with their typical structure were surrounded by small patches of necrotic muscle tissue; also recorded: aggregates of neoplastic cells with their typical structure that surrounded by small patches of necrotic muscle tissue	no statistical difference was detected between compounds 8b and 3b; also recorded: down-regulation of VEGF and TNF α	did not significantly vary from the untreated control group	–	–	–
c1ccc(-c2csc(Nc3cccc(Nc4nc(-c5ccccc5)cs4)c3)n2)cc1 [6a, N^1,N^3-bis(4-phenylthiazol-2-yl)benzene-1,3-diamine]	2020	–	–	–	–	–	–	–	–	–	–	–	–	–	–
Fc1ccc(-c2csc(Nc3cccc(Nc4nc(-c5ccc(F)cc5)cs4)c3)n2)cc1 [6b, N^1,N^3-bis(4–(4-fluorophenyl)thiazol-2-yl)benzene-1,3-diamine]	2950	–	–	–	–	–	–	–	–	–	–	–	–	–	–
Fc1ccc(-c2cs/c(=N\c3ccccc3)n2-c2cccc(-n3c(-c4ccc(F)cc4)cs/c3=N\c3ccccc3)c2)cc1 [8b, N,N’-(3,3’-(1,3-phenylene)bis(4–(4-fluorophenyl)thiazole-3(3H)-yl-2(3H)-ylidene))dianiline]	240	10.5	51.7	1.9	26.5	–	–	10	low expression of VEGF; also recorded: no appreciable VEGF immunoreactivity; also recorded: down-regulation of VEGF	minimal infiltration of neoplastic cells and a significant reduction in their quantity; also recorded: inhibited the growth of Ehrlich solid tumours in mice	no statistical significant difference between DOX and 8b; also recorded: down-regulation of VEGF and TNF α	elevation of malondialdehyde levels	25.9	77.8	highest significant increment in caspase-3 expression; also recorded: significant positive expression of caspase-3; also recorded: up-regulation of caspase-3
